Results from US20240254138A1, “TRICYCLIC PYRIMIDINES AS CYCLIN-DEPENDENT KINASE 7 (CDK7) INHIBITORS” (JANSSEN PHARMACEUTICA NV, priority 2021, published 2024).
Where two headings read alike, the source gives them in different places.

Experiments:
[1] = test system: RNA Polymerase II Serine 5 phosphorylation (Rpb1 CTD, downstream substrate of CDK7) in A549 cells; assay: Imaging-based cellular RNA PolII Ser5 phosphorylation assay in A549 cells; type: cell-based, human; conditions: wild-type CDK7, RNA PolII Ser5 phosphorylation, averaged over all measurements; for CDK7_A549 Wild-type CDK7 (pIC50): A549 cells; for IC50: Homo sapiens, A549, A549 cells, read-out: CDK7_A549 Wild-type CDK7 (pIC50) (converted)
Method in brief: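 IC50 derived by fitting % control (DMSO high, 10 μM reference low) against concentration, with Hill slope. Readout: high-content imaging of phospho-Ser5 Rpb1 CTD antibody staining in fixed, permeabilized A549 cells exposed to compound 3 h after 20 h culture in 1% FBS DMEM.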

[2] = test system: RNA Polymerase II Serine 5 phosphorylation in A549 cells overexpressing CDK7-mutant (C312S); assay: Imaging-based cellular RNA PolII Ser5 phosphorylation assay in A549 cells overexpressing CDK7-mutant (C312S); type: cell-based, human; conditions: RNA PolII Ser5 phosphorylation, averaged over all measurements; for CDK7_A549 mutant hCDK7(pIC50): A549 cells overexpressing CDK7-mutant (C312S); for IC50: Homo sapiens, A549, A549 cells overexpressing CDK7-mutant (C312S), read-out: CDK7_A549 mutant hCDK7(pIC50) (converted)
Method in brief: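 Readout was automated imaging of anti-phospho-Ser5 Rpb1 CTD immunofluorescence, with IC50 fitted to % control versus concentration. Cells were A549 stably overexpressing non-covalently targetable CDK7 C312S alongside wild-type, exposed to compound 3 h at 37 °C. DMSO and 10 μM reference compound served as controls.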

[3] = biological target: CDK7/cyclinH/MAT1 trimeric complex (Homo sapiens, UniProt P50613); assay: In vitro CDK7 assay, potency of irreversible covalent inhibitors (kinact/KI), coupled PK/LDH ADP readout at 340 nm
Chain of CDK7/cyclinH/MAT1 trimeric complex (P50613 whole entry): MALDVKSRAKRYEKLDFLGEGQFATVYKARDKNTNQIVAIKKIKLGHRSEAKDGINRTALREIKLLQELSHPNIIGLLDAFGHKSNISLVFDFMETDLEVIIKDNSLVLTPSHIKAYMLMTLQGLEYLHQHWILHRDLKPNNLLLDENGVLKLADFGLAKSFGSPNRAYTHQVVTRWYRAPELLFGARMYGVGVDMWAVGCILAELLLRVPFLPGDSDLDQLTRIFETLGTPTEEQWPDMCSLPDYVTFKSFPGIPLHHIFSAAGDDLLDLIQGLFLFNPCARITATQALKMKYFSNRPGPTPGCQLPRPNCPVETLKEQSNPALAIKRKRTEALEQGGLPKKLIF
Chain of CDK7/cyclinH/MAT1 trimeric complex (P51946 whole entry partner): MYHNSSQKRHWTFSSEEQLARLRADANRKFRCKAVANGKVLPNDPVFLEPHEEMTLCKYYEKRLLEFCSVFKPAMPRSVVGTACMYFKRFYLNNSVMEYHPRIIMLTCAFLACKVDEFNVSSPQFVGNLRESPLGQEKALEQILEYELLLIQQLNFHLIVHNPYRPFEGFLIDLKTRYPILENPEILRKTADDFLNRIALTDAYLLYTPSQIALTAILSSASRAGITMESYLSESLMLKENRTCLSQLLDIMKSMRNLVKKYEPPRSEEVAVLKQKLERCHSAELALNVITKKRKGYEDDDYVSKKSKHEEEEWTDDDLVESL
Chain of CDK7/cyclinH/MAT1 trimeric complex (P51948 whole entry partner): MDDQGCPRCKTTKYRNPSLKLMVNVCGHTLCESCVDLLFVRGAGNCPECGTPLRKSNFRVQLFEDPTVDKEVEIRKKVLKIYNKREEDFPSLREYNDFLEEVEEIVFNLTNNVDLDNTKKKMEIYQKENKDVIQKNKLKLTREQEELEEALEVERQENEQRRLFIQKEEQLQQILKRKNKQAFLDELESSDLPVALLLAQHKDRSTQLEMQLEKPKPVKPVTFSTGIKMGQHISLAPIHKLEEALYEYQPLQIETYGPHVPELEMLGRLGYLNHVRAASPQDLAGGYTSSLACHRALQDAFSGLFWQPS

[4] = CDK7 (20 nM enz.) (KI, μM), 20 nM enzyme
[5] = read-out: CDK7 (20 nM enz.) (kinact, s^−1), 20 nM enzyme
[6] = read-out: CDK7 (20 nM enz.) (kinact/KI, M^−1*s^−1), 20 nM enzyme
[7] = read-out: CDK7 (20 nM enz.) (kobs/[I], M^−1*s^−1), 20 nM enzyme
[8] = CDK7 (KI(μM)), […], 1 mM ATP, room temperature, averaged values over all measurements
[9] = read-out: CDK7 (kinact, s^−1), kinact = maximal rate of inactivation, 1 mM ATP, room temperature, averaged values over all measurements
[10] = read-out: CDK7 (kinact/KI, M^−1*s^−1), potency of irreversible covalent inhibitors, 1 mM ATP, room temperature, averaged values over all measurements

SMILES	IC50 [1] [nM]	IC50 [2] [nM]	Ki [3, 4] [µM]	kinact [3, 5] [s⁻¹]	kinact/KI [3, 6] [M⁻¹ s⁻¹]	other results
C=CC(=O)N1CC(N2CCC(c3ccc4c(c3)Nc3nccc(C5CCOCC5)c3CO4)CC2)C1 [compound 15]						CDK7_A549 Wild-type CDK7 (pIC50) [1]: 7.26; CDK7_A549 mutant hCDK7(pIC50) [2]: <5; CDK7 (kinact/KI, M^−1*s^−1) ([3]; potency of irreversible covalent inhibitors, 1 mM ATP, room temperature, averaged values over all measurements): 320.6 M⁻¹ s⁻¹
CC#CC(=O)N1CC[C@H](N2CCC(c3cc4c(c(C)n3)OCc3c(N5CCOCC5)ccnc3N4)CC2)C1 (single isomer, unassigned) [Compound 309]	129	> 10000	0.277	5.45e-05	197	
C=CC(=O)N1CC(N2CC[C@H](c3cc4c(c(C)n3)OCc3c(N5CCOCC5)ccnc3N4)N(C)CC2)C1 (single isomer, unassigned) [Compound 452]	64.6	6920	0.0493	4.92e-05	997	
C=CC(=O)N1CC(N2CCC(c3ccc4c(c3)Nc3nccc(-c5cnn(C)c5)c3C(C)(C)O4)CC2)C1 [Compound 260]			0.0256			CDK7_A549 Wild-type CDK7 (pIC50) [1]: 7.1; CDK7_A549 mutant hCDK7(pIC50) [2]: <5; CDK7 (20 nM enz.) (kinact, s^−1) ([3]; 20 nM enzyme): 4.64e-05 s⁻¹; CDK7 (20 nM enz.) (kinact/KI, M^−1*s^−1) ([3]; 20 nM enzyme): 1810.44 M⁻¹ s⁻¹
C=CC(=O)N1CC(N2CC(c3cc4c(c(C(F)(F)F)c3)OCc3c(N5CCOCC5)ccnc3N4)C2)C1 [Compound 267]	23.4	~7240				kinact/KI [3, 7]: 977 M⁻¹ s⁻¹
C=CC(=O)N1CC(N2CCC(c3ccc4c(c3)Nc3nccc(N5CCOC6(CCOCC6)C5)c3CO4)CC2)C1 [Compound 47]	871	> 10000				Ki [3, 8]: 0.207 µM; kinact [3, 9]: 0.000125 s⁻¹; kinact/KI [3, 10]: 605 M⁻¹ s⁻¹
C=CC(=O)N1CC[C@@H](N2CC(c3cc(C)c4c(c3)Nc3nccc(N5CCOCC5)c3[C@@H](C)O4)C2)C1 (single isomer, unassigned) [Compound 230]	20	6760				kinact/KI [3, 7]: 791 M⁻¹ s⁻¹
C=CC(=O)N1CC(N2CCC(c3ccc4c(c3)Nc3nccc(N5CCc6nn(C)cc6C5)c3CO4)CC2)C1 [Compound 132]	363	> 10000	0.312	7.08e-05	227	
C#Cc1cc2c(cc1C1CCN(C3CN(C(=O)C=C)C3)CC1)Nc1nccc(N3CCOCC3)c1[C@@H](C)O2 (single isomer, unassigned) [Compound 211]			7.29	7.18e-05	9.85	CDK7_A549 Wild-type CDK7 (pIC50) [1]: ~5; CDK7_A549 mutant hCDK7(pIC50) [2]: <5
C=CC(=O)N1CC[C@H](N2CC(c3cc(C)c4c(c3)Nc3nccc(N5CCOCC5)c3[C@H](C)O4)C2)C1 (single isomer, unassigned) [Compound 231]	380	> 10000	1.61	6.1e-05	37.8	
C=CC(=O)N1CC(N2CCC(c3cc(C#N)c4c(c3)Nc3nccc(N5CCOCC5)c3C(C)O4)CC2)C1 (stereo not drawn) [Compound 352]			0.055	5.53e-05	1010	CDK7_A549 Wild-type CDK7 (pIC50) [1]: 7.52; CDK7_A549 mutant hCDK7(pIC50) [2]: 5.51
C=CC(=O)N1CC(N2CCC(c3cc4c(c(C)n3)OCc3c(N5CCOCC5)ccnc3N4)CC2)C1 [Compound 217]			0.101			CDK7_A549 Wild-type CDK7 (pIC50) [1]: 7.15; CDK7_A549 mutant hCDK7(pIC50) [2]: <5; CDK7 (20 nM enz.) (kinact, s^−1) ([3]; 20 nM enzyme): 8.548e-05 s⁻¹; CDK7 (20 nM enz.) (kinact/KI, M^−1*s^−1) ([3]; 20 nM enzyme): 845.246 M⁻¹ s⁻¹
C=CC(=O)N1CCC(N2CC(c3cc(Cl)c4c(c3)Nc3nccc(C5CCOCC5)c3CO4)C2)CC1 [Compound 148]	37.2	5500	0.0507	3.38e-05	666	
C=CC(=O)N1CCC(N2CC(c3cc(F)c4c(c3)Nc3nccc(-c5cnn(C)c5)c3CO4)C2)CC1 [Compound 117]	126	7760	0.0512	4.56e-05	891	
CC#CC(=O)N1CC[C@@H](N2CCC(c3cc4c(c(C)n3)OCc3c(-c5cnn(C)c5)ccnc3N4)CC2)C1 (single isomer, unassigned) [Compound 299]	87.1	> 10000	0.0959	5.9e-05	615	
C=CC(=O)N1CCC(N2CCC(c3cc4c(c(C)n3)O[C@H](C)c3c(N5CCOCC5)ccnc3N4)CC2)CC1 (single isomer, unassigned) [Compound 406]	~9.77	1820	0.495	0.000181	366	

SMILES	IC50 [1] [nM]	IC50 [2] [nM]	Ki [3, 4] [µM]	kinact [3, 5] [s⁻¹]	kinact/KI [3, 6] [M⁻¹ s⁻¹]	other results
CC#CC(=O)N1CC(N2CCC(c3cc4c(c(C)n3)O[C@@H](C)c3c(N5CCOCC5)ccnc3N4)CC2)C1 (single isomer, unassigned) [Compound 344]	3980	> 10000	17.1	5.4e-05	3.15	
C=CC(=O)N1CC[C@H](N2CC(c3cc4c(c(C)n3)OCc3c(C5CCOCC5)ccnc3N4)C2)[C@H](F)C1 (mixture of isomers) [Compound 236]	162	7410	0.084	3.05e-05	362	
C=CC(=O)N1CC(N2CC(c3cc4c(c(C(F)(F)F)n3)OCc3c(N5CCOCC5)ccnc3N4)C2)C1 [Compound 357]						CDK7_A549 Wild-type CDK7 (pIC50) [1]: 7.24; CDK7_A549 mutant hCDK7(pIC50) [2]: 5.11; CDK7 (20 nM enz.) (kobs/[I], M^−1*s^−1) ([3]; 20 nM enzyme): 2368.08 M⁻¹ s⁻¹
C#Cc1cc(C2CCN(C3CN(C(=O)C=C)C3)CC2)cc2c1OCc1c(C3CCOCC3)ccnc1N2 [Compound 118]	70.8	> 10000				kinact/KI [3, 7]: 1620 M⁻¹ s⁻¹
C=CC(=O)N1CC[C@@H](N2CC(c3cc(C)c4c(c3)Nc3nccc(N5CCOCC5)c3CO4)C2)[C@@H](F)C1 (mixture of isomers) [Compound 202]	107	> 10000	0.0239	3.55e-05	1490	
C=CC(=O)N1CC(N2CCC(c3ccc4c(c3)Nc3nccc(N5CCOCC5)c3[C@@H](C)O4)CC2)C1 (single isomer, unassigned) [Compound 89]	60.3	> 10000				kinact/KI [3, 7]: 923 M⁻¹ s⁻¹
CC#CC(=O)N1CC(N2CCC(c3ccc4c(c3)Nc3nccc(C5CCOCC5)c3CO4)CC2)C1 [Compound 269]	162	> 10000	0.103	4.28e-05	417	
C=CC(=O)N1CCC(N2CCN(c3ccc4c(c3)Nc3nccc(N5CCOCC5)c3CO4)CC2)CC1 [Compound 382]	204	> 10000	3.26	4.7e-05	14.4	
C=CC(=O)N1CC(N2CCC(c3ccc4c(c3)Nc3nccc(N5CCOC[C@@H]5C)c3CO4)CC2)C1 (single isomer, unassigned) [Compound 32]	398	> 10000				Ki [3, 8]: 0.177 µM; kinact [3, 9]: 0.000102 s⁻¹; kinact/KI [3, 10]: 578 M⁻¹ s⁻¹
C=CC(=O)N1CC[C@@H](N2CC(c3cc4c(c(C)n3)OCc3c(N5CCOCC5)ccnc3N4)C2)[C@H](F)C1 (mixture of isomers) [Compound 220]	631	> 10000	0.114	2.74e-05	240	
Cc1nc(C2CCN([C@@H]3CCN(C(=O)/C=C/C(=O)O)C3)CC2)cc2c1OCc1c(-c3cnn(C)c3)ccnc1N2 (single isomer, unassigned) [Compound 330]	7240	> 10000	4.58	8.82e-05	19.2	
C=CC(=O)N1CC(N2CCC(c3cc(C)c4c(c3)Nc3nccc(C5CCOCC5)c3CO4)CC2)C1 [Compound 59]	72.4				1480	CDK7_A549 mutant hCDK7(pIC50) [2]: <5.4
CC#CC(=O)N1CC[C@H](N2CC(c3cc4c(c(C5CC5)n3)O[C@H](C)c3c(N5CCOCC5)ccnc3N4)C2)C1 (single isomer, unassigned) [Compound 471]	7080	> 10000	3.64	3.28e-05	9.02	
C=CC(=O)N1CCC(N2CCC(c3cc4c(c(C)n3)OCc3c(N5CCOCC5)ccnc3N4)CC2=O)CC1 (stereo not drawn) [Compound 476]	550	> 10000	0.236	2.18e-05	92.5	
CC#CC(=O)N1CC(N2CC[C@H](c3cc4c(c(C)n3)O[C@H](C)c3c(N5CCOCC5)ccnc3N4)N(C)CC2)C1 (single isomer, unassigned) [Compound 525]	141	5370	0.0109	1.44e-05	1320	
